Measurements from ChEMBL document CHEMBL4304782, “Antioxidant, Anti-inflammatory, and Neuroprotective Effects of Novel Vinyl Sulfonate Compounds as Nrf2 Activator” (ACS Med Chem Lett, 2019).

Target: T1, Nuclear factor erythroid 2-related factor 2 (Homo sapiens, UniProt Q16236)
T1 sequence (Q16236 whole entry): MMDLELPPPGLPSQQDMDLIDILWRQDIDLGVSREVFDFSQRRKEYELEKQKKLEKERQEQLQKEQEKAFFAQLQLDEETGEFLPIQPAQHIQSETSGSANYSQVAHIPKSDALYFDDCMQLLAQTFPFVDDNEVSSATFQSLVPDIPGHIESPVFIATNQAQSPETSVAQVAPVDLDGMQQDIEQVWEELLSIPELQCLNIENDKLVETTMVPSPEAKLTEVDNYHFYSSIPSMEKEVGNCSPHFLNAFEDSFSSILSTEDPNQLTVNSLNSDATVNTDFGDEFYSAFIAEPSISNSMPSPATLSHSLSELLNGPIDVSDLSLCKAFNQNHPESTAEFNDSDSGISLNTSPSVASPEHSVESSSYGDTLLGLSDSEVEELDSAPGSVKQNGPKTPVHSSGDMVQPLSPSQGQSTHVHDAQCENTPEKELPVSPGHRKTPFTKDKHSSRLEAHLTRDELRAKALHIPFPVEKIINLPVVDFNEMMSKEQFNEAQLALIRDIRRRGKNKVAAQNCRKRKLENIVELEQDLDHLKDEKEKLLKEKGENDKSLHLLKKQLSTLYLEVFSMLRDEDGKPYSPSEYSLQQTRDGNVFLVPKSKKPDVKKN
Assay: Activation of ED-tagged Nrf2 in human U2OS cells co-expressing Keap1 assessed as induction of NRF2 translocation to nucleus after 6 hrs by beta-galactosidase based chemiluminescent assay
Format: cell-based

| Compound | EC50 [µM] |
| --- | --- |
| COc1cccc(OS(=O)(=O)/C=C/c2ccccc2Cl)c1 | 0.165 |
| COc1ccccc1NS(=O)(=O)/C=C/c1ccccc1Cl | 6.35 |
| COc1cccc(OS(=O)(=O)/C=C/c2ccc(Cl)cc2)c1 | 1.78 |
| COc1ccccc1OS(=O)(=O)/C=C/c1cccc(Cl)c1 | 0.698 |
| COc1ccc(OS(=O)(=O)/C=C/c2ccccc2)cc1 | 1.48 |
| COc1ccc(OS(=O)(=O)/C=C/c2ccc(Cl)cc2)cc1 | 1.16 |
| COc1ccccc1OS(=O)(=O)/C=C/c1ccc(Cl)cc1 | 1.33 |
| COc1ccc(OS(=O)(=O)/C=C/c2ccccc2Cl)cc1 | 0.237 |
